How the values were obtained:
[1] = test system: M. tuberculosis H37Rv and mmpL3 mutants DR1-DR9; assay type: cell-based
[2] = test system: M. bovis BCG and mmpL3 mutants M1, M8; assay type: cell-based

| SMILES | MIC for M. tuberculosis mutants with amino acid change V681I [1] | MIC for M. bovis BCG mutants resistant to compound 8 [2] | MIC for M. tuberculosis isolates resistant to compound 8 [1] |
| --- | --- | --- | --- |
| Cc1ccc(-c2cc(CN3CCOCC3)c(C)n2-c2ccc(F)cc2)cc1 [Compound 5, 2-Methyl-3-[(morpholin-4-yl)-methyl]-5-[4-(methyl)phenyl]-1-[4-(fluoro)phenyl]-1H-pyrrole] | 5.4 µM |  |  |
| CCc1ccc(-c2cc(CN3CCOCC3)c(C)n2-c2ccc(F)cc2)cc1 [Compound 8, 2-Methyl-3-[(morpholin-4-yl)-methyl]-5-[4-(ethyl)phenyl]-1-[4-(fluoro)phenyl]-1H-pyrrole] |  | 0.63 µM | 0.66 µM |

Source: publication PMC3578785, “Improved BM212 MmpL3 Inhibitor Analogue Shows Efficacy in Acute Murine Model of Tuberculosis Infection” (PLoS ONE, 2013)
